Patent publication US9782379B2, “Use of protectin DX for the stimulation of muscular IL-6 secretion” (Universite Laval, priority 2013, dated 2017)

Legend:
[1] = system: J774A.1 murine macrophages; experiment: macrophages treated with palmitate in vitro; format: cell-based; details: 400 μM palmitate, 16 hours
Procedure: J774A.1 murine macrophages were maintained in DMEM (10% FBS) until 80% confluence. A 2 mM palmitate solution or methanol vehicle in alpha-MEM (12% BSA) was added to fresh DMEM (10% FBS) to give a final concentration of 400 μM palmitate. Concomitantly, PDX, RvE1, RvD1 (10 or 100 nM, Cayman chemical), or vehicle was added to the media. After 16 hours, the media was collected and cells were lysed as described for the studies in C2C12 myotubes.
Snap frozen gastrocnemius muscle and liver from mice were pulverized in liquid nitrogen then lysed overnight at 4° C. in the lysis buffer described for the C2C12 myotube experiments. Immunoblotting of myotube, macrophage, liver and muscle lysates was then performed as previously described^5. Briefly, 50 ug of protein was loaded onto a 7.5% acrylamide gel, subjected to SDS-PAGE then transferred onto nitrocellulose membranes. Membranes were then blocked and probed with the appropriate antibodies. Antibodies for p-Akt ser473, p-JNK thr183/tyr185, JNK, p-AMPK thr172, AMPK, p-STAT-3 ser727 and STAT-3 were obtained from Cell Signaling Technology (MA, USA). Antibodies for total Akt and iNOS were from Santa Cruz Biotechnology (CA, USA) and BD Transduction Laboratories™ (Canada) respectively.
Chemokines and cytokines were quantified in macrophage media, or mouse plasma using the MILLIPLEX™ MAP mouse cytokine/chemokine kit (Millipore Corporation, MA, USA). Nitrite accumulation in media was determined by Greiss assay as previously described^25. Plasma insulin levels were assessed by RIA (Linco, MI, USA). FFA were measured using an enzymatic colorimetric assay (Wako Chemicals, VA, USA). Skeletal muscle and liver IL-6 were quantified using the mouse IL-6 ELISA kit from R&D systems. Total plasma adiponectin was determined using the ELISA from ALPCO.

[2] = system: J77A4 macrophages; experiment: IL-6 release from cultured macrophages in the absence of palmitate stimulation; format: cell-based, murine
Source text: (a-b) Skeletal muscle and liver IL-6 protein expression. (c) Total plasma adiponectin. (d) Immunoblots for pAMPK thr172 and total AMPK in skeletal muscle. (e) Immunoblots for pSTAT-3 ser727 and total STAT-3 in liver. Quantification of densitometry analyses for immunoblots are shown below the representative gels. In each case lanes were run on the same gel but were noncontiguous. (f-h) Relative mRNA expression for Ppargc1, Pck1 and G6Pc in liver. All genes were normalized to GAPDH using the delta delta CT method. All data are mean±SEM, n=6, *P<0.05, **P<0.01 vs Saline; ^†P<0.05, ^††P<0.01vs Lipid. (i) IL-6 in media of C2C12 myotubes exposed to PDX for 2 h. (j) IL-6 mRNA expression in C2C12 myotubes exposed to PDX for 2 h. (k) Immunoblots for pAMPK thr172 and total AMPK in C2C12 myotubes exposed to PDX for 2 h. Quantification of densitometry analyses for immunoblots are shown below the representative gels. Lanes were run on the same gel but were noncontiguous. Data are mean±SEM of three independent experiments. *P<0.05, **P<0.01 vs vehicle. (I) IL-6 in media of C2C12 myotubes exposed to Veh, or 100 nM of PDX, PD1, 8(S),15(s)-DiHETE, or RvD1. Data are mean±SEM of three independent experiments. **P<0.01 vs vehicle. (m) IL-6 in media of J77A4 macrophages treated with Veh, LPS, or PDX (10, 100, or 1000 nM) for 30 min, 2 h and 8 h. (n) Immunoblots for pAMPK thr172 and total AMPK in C2C12 myotubes exposed to PDX for 2h. Quantification of densitometry analyses for immunoblots are shown below the representative gels. Data are mean±SEM of three independent experiments. **P<0.01 vs vehicle.
In order to address the dichotomy in PDX's effect on IL-6 release from muscle versus macrophages, we next examined the impact of PDX on IL-6 release from cultured macrophages in the absence of palmitate stimulation (FIG. 5m). […] Since activation of AMPK represses inflammatory cytokine production in macrophages^19 this may explain the opposing effect of PDX on IL-6 expression and release in skeletal myotubes and activated macrophages.

[3] = system: T37i brown adipocytes; experiment: IL-6 release from cultured brown adipocytes; format: cell-based; details: norepinephrine 1 μM as adrenergic stimulus
Source text: Since brown adipose tissue was recently shown to regulate glucose homeostasis via secretion of IL-6^20 we also examined whether PDX might raise circulating IL-6 by stimulating brown fat.

[4] = system: genetically obese db/db mice; experiment: 4 mU/kg hyperinsulinemic-isoglycemic clamp in db/db mice, acute PDX; format: in vivo
Procedure: The 4 mU/kg hyperinsulinemic-isoglycemic clamp study was performed in 10 week old db/db mice from the BKS.Cg-Dock7^m+/+Lepr^db/J strain at Jackson Labs. Mice were randomly assigned to vehicle or PDX treatment groups. In preparation for the clamps mice were catheterized as described for the lipid infusion study. Mice were administered 2 ug of PDX or an equal volume of vehicle i.v. at 4 h and also 90 minutes prior to the initiation of the insulin pump. Pre-clamp glycemia was taken immediately prior to the second PDX shot. The clamp began 90 minutes later with a primed-continuous infusion of human insulin (16 mU/kg bolus followed by 4 mU·kg^−1·min^−1, Humulin R; Eli Lilly, Indianapolis, Ind.). Glycemia was maintained as close as possible to individual fasting values by infusing 20% dextrose as necessary. Blood samples were taken continuously to determine glycemia as well as insulin concentrations. Mice received saline-washed erythrocytes from donor mice throughout the experimental period (5-6 μl·min-1) to prevent a fall of ≧5% hematocrit.
We further explored the therapeutic efficacy of PDX in genetically obese db/db mice, a well-established model of T2D. Here we tested the ability of PDX to rapidly alleviate insulin resistance using a 4 mU/kg hyperinsulinemic-isoglycemic clamp (see design in FIG. 1). In these experiments, db/db mice were treated with vehicle or PDX (2 μg i.v.) 240 and 90 minutes prior to the initiation of the clamp.

SMILES: CC/C=C\C[C@H](O)/C=C/C=C\C=C\[C@@H](O)C/C=C\C/C=C\CCC(=O)O [PDX, 10S,17S-dihydroxy-docosa-4Z,7Z,11E,13Z,15E,19Z-hexaeonic acid]
- iNOS and JNK activation [1]: effectively suppresses
- lipid-induced IL-6 production [1]: actually suppresses
- lipid-induced secretion of CCL2/MCP-1, CCL5/RANTES, TNFα, IL-2, and IL-10 ([1]; PDX 10 or 100 nM): effectively suppresses
- AMPK phosphorylation ([2]; P<0.01): promote AMPK phosphorylation
- IL-6 mRNA expression ([2]; no palmitate): does not stimulate
- IL-6 release ([2]; no palmitate, PDX 10, 100, or 1000 nM for 30 min, 2 h and 8 h): does not stimulate
- release of IL-6 [3]: not able to stimulate
- lowering of pre-clamp glycemia ([4]; PDX 2 μg i.v. 240 and 90 minutes prior to clamp): did not reach statistical significance
- improvement of the GIR during the clamp ([4]; PDX 2 μg i.v. 240 and 90 minutes prior to clamp, P<0.01): 3.6 fold
- PGC-1α, PEPCK, and G6Pase mRNA expression in liver ([4]; PDX 2 μg i.v. x2): enhanced suppression
- IL-6 in the skeletal muscle and plasma ([4]; PDX 2 μg i.v. x2, P<0.01): increased
- adipose tissue chemokines or cytokines ([4]; epididymal adipose tissue): absence of any significant anti-inflammatory impact
